Like-named read-outs stand apart in the source and are kept apart here.
Experiments:
Type in all cases: binding
various enzymes [1] = biological target: various enzymes (Homo sapiens, UniProt O00238); conditions: compound 1 uM
Method: (§1) Ambit profiling was conducted in accordance with the manufacturer's instructions.

various enzymes [2] = biological target: various enzymes (Homo sapiens, UniProt P42684); conditions: compound 1 uM
Method: as §1

various enzymes [3] = biological target: various enzymes (Homo sapiens, UniProt P29376); conditions: compound 1 uM
Method: as §1

various enzymes [4] = biological target: T1, various enzymes (Homo sapiens, UniProt O14733); conditions: compound 1 uM
T1 sequence (O14733 1-419): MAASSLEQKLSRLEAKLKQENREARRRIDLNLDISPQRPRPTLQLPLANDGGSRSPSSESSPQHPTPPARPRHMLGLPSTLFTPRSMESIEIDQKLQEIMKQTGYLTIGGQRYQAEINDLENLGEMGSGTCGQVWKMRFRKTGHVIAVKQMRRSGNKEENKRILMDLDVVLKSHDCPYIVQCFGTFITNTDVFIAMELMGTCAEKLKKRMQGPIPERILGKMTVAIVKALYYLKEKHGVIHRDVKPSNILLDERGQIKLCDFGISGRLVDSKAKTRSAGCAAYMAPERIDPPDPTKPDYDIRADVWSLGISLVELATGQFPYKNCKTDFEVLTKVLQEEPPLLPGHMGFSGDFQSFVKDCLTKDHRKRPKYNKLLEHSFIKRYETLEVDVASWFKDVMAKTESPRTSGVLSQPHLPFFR
Method: as §1

various enzymes [5] = biological target: various enzymes (Homo sapiens, UniProt Q8TDR2); conditions: compound 1 uM
Method: as §1

various enzymes [6] = biological target: various enzymes (Homo sapiens, UniProt O95747); conditions: compound 1 uM
Method: as §1

various enzymes [7] = biological target: various enzymes (Homo sapiens, UniProt Q07002); conditions: compound 1 uM
Method: as §1

various enzymes [8] = biological target: various enzymes (Homo sapiens, UniProt P29320); conditions: compound 1 uM
Method: as §1

various enzymes [9] = biological target: various enzymes (Homo sapiens, UniProt P37023); conditions: compound 1 uM
Method: as §1

various enzymes [10] = biological target: various enzymes (Homo sapiens, UniProt P48730); conditions: compound 1 uM
Method: as §1

various enzymes [11] = biological target: various enzymes (Homo sapiens, UniProt P31751); conditions: compound 1 uM
Method: as §1

various enzymes [12] = biological target: various enzymes (Homo sapiens, UniProt P06213); conditions: compound 1 uM
Method: as §1

various enzymes [13] = biological target: various enzymes (Homo sapiens, UniProt O14936); conditions: compound 1 uM
Method: as §1

various enzymes [14] = biological target: various enzymes (Homo sapiens, UniProt P07949, V804M)
Method: as §1

various enzymes [15] = biological target: various enzymes (Homo sapiens, UniProt P51812); conditions: compound 1 uM
Method: as §1

various enzymes [16] = biological target: various enzymes (Homo sapiens, UniProt O00506); conditions: compound 1 uM
Method: as §1

various enzymes [17] = biological target: various enzymes (Homo sapiens, UniProt Q8NFD2); conditions: compound 1 uM
Method: as §1

various enzymes [18] = biological target: various enzymes (Homo sapiens, UniProt P78368); conditions: compound 1 uM
Method: as §1

various enzymes [19] = biological target: various enzymes (Homo sapiens, UniProt Q15831); conditions: compound 1 uM
Method: as §1

various enzymes [20] = biological target: various enzymes (Homo sapiens, UniProt Q9NRP7); conditions: compound 1 uM
Method: as §1

various enzymes [21] = biological target: various enzymes (Homo sapiens, UniProt O15146); conditions: compound 1 uM
Method: as §1

various enzymes [22] = biological target: various enzymes (Homo sapiens, UniProt O96013); conditions: compound 1 uM
Method: as §1

various enzymes [23] = biological target: various enzymes (Homo sapiens, UniProt P36896); conditions: compound 1 uM
Method: as §1

various enzymes [24] = biological target: various enzymes (Homo sapiens, UniProt P42336, E545A)
Method: as §1

various enzymes [25] = biological target: various enzymes (Homo sapiens, UniProt Q13188); conditions: compound 1 uM
Method: as §1

various enzymes [26] = biological target: various enzymes (Homo sapiens, UniProt Q5VT25); conditions: compound 1 uM
Method: as §1

various enzymes [27] = biological target: various enzymes (Homo sapiens, UniProt Q00536); conditions: compound 1 uM
Method: as §1

various enzymes [28] = biological target: various enzymes (Homo sapiens, UniProt Q16513); conditions: compound 1 uM
Method: as §1

various enzymes [29] = biological target: various enzymes (Homo sapiens, UniProt Q9UEE5); conditions: compound 1 uM
Method: as §1

various enzymes [30] = biological target: various enzymes (Homo sapiens, UniProt P20794); conditions: compound 1 uM
Method: as §1

various enzymes [31] = biological target: various enzymes (Homo sapiens, UniProt P52333); conditions: compound 1 uM
Method: as §1

various enzymes [32] = biological target: various enzymes (Homo sapiens, UniProt P37173); conditions: compound 1 uM
Method: as §1

various enzymes [33] = biological target: various enzymes (Homo sapiens, UniProt Q9Y2H1); conditions: compound 1 uM
Method: as §1

various enzymes [34] = biological target: various enzymes (Homo sapiens, UniProt Q16288); conditions: compound 1 uM
Method: as §1

various enzymes [35] = biological target: various enzymes (Homo sapiens, UniProt P29597); conditions: compound 1 uM
Method: as §1

various enzymes [36] = biological target: various enzymes (Homo sapiens, UniProt Q8WTQ7); conditions: compound 1 uM
Method: as §1

various enzymes [37] = biological target: various enzymes (Homo sapiens, UniProt Q15835); conditions: compound 1 uM
Method: as §1

various enzymes [38] = biological target: various enzymes (Homo sapiens, UniProt P52564); conditions: compound 1 uM
Method: as §1

Chain of various enzymes (Homo sapiens, UniProt P51812) (P51812 whole entry): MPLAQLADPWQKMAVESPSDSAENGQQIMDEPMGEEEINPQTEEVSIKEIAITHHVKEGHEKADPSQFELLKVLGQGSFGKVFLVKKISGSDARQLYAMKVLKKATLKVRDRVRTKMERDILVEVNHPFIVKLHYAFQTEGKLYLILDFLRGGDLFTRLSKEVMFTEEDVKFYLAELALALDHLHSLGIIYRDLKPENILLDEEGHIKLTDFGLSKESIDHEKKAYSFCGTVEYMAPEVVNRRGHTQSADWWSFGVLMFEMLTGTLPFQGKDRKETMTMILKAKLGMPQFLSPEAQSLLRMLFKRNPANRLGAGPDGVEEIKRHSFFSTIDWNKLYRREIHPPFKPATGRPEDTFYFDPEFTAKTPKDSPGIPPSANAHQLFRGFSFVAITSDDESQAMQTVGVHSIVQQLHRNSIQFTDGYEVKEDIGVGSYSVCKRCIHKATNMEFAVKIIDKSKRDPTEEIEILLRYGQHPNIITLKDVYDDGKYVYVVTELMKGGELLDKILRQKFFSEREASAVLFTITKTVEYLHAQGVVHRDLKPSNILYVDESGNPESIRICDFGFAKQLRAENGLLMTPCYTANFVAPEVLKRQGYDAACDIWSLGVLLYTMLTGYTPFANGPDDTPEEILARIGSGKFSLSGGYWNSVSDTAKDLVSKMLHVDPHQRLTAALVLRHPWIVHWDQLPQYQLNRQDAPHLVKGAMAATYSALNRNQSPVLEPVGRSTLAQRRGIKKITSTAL
Chain of various enzymes (Homo sapiens, UniProt P29597) (P29597 whole entry): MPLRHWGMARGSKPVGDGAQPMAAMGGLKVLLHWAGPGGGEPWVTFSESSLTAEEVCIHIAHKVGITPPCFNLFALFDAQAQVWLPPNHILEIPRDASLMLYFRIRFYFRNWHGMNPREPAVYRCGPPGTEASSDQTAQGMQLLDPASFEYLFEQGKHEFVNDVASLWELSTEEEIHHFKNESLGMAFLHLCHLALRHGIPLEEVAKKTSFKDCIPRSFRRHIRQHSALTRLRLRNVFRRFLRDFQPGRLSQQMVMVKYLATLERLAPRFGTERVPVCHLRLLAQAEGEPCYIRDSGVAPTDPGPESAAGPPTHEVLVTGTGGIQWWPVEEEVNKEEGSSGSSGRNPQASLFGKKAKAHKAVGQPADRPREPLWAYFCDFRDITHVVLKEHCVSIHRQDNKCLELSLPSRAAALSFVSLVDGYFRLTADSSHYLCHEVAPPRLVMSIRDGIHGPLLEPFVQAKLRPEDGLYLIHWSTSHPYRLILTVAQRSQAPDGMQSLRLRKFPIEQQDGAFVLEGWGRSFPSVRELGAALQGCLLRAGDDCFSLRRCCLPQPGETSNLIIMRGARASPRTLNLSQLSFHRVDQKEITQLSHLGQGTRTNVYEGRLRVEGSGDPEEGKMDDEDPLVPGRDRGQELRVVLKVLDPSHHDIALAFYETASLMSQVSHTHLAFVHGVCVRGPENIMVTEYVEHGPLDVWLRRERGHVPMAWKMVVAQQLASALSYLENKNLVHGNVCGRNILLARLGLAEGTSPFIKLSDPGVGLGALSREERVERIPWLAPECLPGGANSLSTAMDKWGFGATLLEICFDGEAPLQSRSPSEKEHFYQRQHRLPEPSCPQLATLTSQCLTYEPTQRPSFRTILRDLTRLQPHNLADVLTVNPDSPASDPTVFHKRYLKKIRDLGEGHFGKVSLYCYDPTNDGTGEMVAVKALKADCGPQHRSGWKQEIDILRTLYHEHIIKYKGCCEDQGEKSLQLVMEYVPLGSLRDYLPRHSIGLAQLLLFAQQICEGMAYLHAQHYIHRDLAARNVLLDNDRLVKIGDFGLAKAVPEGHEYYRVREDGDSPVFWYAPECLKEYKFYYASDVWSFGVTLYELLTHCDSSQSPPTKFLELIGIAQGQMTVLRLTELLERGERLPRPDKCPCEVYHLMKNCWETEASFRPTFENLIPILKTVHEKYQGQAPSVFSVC
Chain of various enzymes (Homo sapiens, UniProt Q07002) (Q07002 whole entry): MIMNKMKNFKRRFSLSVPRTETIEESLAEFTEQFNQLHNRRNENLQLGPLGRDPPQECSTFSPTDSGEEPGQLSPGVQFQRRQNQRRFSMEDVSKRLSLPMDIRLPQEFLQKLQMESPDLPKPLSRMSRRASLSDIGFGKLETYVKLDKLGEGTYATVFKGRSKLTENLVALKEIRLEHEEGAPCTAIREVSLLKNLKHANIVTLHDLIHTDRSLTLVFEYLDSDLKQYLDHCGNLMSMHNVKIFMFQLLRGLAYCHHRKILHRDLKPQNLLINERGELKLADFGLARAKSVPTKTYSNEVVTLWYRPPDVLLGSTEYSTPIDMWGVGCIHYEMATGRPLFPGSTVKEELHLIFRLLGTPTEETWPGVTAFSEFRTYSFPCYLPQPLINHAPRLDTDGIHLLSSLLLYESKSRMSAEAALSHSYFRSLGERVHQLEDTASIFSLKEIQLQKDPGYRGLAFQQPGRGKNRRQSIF
Chain of various enzymes (Homo sapiens, UniProt Q16513) (Q16513 whole entry): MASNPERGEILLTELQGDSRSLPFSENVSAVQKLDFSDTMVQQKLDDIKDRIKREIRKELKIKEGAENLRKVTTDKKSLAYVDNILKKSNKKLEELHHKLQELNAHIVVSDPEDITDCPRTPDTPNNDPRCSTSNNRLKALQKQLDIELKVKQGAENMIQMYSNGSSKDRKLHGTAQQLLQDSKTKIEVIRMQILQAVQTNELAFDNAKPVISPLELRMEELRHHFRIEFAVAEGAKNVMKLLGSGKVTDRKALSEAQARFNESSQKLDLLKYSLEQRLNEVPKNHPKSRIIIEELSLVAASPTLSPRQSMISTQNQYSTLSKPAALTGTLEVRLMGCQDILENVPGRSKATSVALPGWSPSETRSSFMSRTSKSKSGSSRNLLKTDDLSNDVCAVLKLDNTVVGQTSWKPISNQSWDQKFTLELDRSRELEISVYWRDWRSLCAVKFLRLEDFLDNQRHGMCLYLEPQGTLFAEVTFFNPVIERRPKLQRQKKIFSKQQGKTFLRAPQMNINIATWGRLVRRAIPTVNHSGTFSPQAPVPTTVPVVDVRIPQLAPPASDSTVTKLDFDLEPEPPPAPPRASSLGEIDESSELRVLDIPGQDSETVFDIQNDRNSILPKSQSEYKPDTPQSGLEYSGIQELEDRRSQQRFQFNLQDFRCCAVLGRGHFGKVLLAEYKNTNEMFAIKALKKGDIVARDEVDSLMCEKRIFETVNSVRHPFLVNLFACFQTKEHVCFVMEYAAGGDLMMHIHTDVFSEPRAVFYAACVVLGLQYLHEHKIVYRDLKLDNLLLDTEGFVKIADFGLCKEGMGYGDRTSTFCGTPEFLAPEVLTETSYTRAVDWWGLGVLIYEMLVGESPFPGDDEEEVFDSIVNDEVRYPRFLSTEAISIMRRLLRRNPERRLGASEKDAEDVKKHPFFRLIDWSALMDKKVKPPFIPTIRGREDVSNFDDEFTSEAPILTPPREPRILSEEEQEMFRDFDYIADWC
Chain of various enzymes (Homo sapiens, UniProt O00238) (O00238 14-502): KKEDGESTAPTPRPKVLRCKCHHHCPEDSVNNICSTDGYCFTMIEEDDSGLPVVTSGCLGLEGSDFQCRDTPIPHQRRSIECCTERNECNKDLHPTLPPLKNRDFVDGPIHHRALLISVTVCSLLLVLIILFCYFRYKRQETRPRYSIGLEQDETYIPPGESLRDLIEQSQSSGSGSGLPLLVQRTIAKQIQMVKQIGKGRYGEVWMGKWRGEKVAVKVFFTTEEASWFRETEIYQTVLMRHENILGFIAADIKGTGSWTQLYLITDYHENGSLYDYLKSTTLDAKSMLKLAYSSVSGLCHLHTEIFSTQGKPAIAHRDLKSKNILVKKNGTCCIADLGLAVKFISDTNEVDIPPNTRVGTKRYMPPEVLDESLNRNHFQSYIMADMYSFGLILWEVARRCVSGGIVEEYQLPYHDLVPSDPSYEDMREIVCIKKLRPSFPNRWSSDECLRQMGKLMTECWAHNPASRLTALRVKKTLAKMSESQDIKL
Chain of various enzymes (Homo sapiens, UniProt Q8NFD2) (Q8NFD2 whole entry): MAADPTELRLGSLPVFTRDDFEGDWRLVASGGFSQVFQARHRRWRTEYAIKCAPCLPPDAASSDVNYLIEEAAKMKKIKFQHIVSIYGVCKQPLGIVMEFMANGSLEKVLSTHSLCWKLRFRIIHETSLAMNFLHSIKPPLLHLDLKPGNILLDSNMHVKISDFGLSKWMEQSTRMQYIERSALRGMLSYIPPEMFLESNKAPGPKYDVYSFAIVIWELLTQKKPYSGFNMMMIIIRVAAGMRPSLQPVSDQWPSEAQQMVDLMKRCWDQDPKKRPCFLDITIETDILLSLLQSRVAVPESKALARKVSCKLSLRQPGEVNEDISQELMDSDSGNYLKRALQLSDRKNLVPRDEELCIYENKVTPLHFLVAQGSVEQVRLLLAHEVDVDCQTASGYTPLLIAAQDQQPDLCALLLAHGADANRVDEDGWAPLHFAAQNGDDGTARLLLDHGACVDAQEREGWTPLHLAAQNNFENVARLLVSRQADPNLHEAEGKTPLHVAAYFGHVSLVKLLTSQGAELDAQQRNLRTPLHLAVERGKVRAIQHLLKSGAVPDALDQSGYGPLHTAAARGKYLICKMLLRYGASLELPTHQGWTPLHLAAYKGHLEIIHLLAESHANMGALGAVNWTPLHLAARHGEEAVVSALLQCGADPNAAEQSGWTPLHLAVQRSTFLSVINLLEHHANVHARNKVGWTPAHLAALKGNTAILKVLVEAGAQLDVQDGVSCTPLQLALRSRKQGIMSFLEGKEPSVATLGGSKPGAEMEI
Chain of various enzymes (Homo sapiens, UniProt P52564) (P52564 whole entry): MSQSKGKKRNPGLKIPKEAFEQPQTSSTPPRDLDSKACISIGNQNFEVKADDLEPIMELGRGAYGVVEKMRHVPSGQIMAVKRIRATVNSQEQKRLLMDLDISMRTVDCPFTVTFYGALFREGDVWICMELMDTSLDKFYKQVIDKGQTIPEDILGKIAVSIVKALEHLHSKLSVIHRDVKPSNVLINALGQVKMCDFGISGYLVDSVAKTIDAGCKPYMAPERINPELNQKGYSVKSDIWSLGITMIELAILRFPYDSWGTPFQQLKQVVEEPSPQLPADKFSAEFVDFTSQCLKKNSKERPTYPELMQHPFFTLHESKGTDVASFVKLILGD

SMILES	Ambit profiling: BMPR1B (various enzymes [1])	Ambit profiling: ABL2 (various enzymes [2])	Ambit profiling: LTK (various enzymes [3])	Ambit profiling: MKK7 (various enzymes [4])	Ambit profiling: STK35 (various enzymes [5])	Ambit profiling: OSR1 (various enzymes [6])	Ambit profiling: PCTK3 (various enzymes [7])	Ambit profiling: EPHA3 (various enzymes [8])	Ambit profiling: ACVRL1 (various enzymes [9])	Ambit profiling: AKT2 (various enzymes [11])	Ambit profiling: INSR (various enzymes [12])	Ambit profiling: CASK (various enzymes [13])	Ambit profiling: RSK2(Kin.Dom.1-N-terminal) (various enzymes [15])	Ambit profiling: RSK2(Kin.Dom.2-C-terminal) (various enzymes [15])	Ambit profiling: YSK1 (various enzymes [16])	Ambit profiling: ANKK1 (various enzymes [17])	Ambit profiling: CSNK1G2 (various enzymes [18])	Ambit profiling: LKB1 (various enzymes [19])	Ambit profiling: STK36 (various enzymes [20])	Ambit profiling: MUSK (various enzymes [21])	further results
COc1c2c(nn1C)CN(C(C)C)C(=O)CCCn1cc(c(C(F)(F)F)n1)-c1c[nH]c3ncc-2cc13 [Compound 50, (Z)-5-isopropyl-35-methoxy-31-methyl-13-(trifluoromethyl)-11H,21H,31H-5-aza-2(3,5)-pyrrolo[2,3-b]pyridina-1(4,1),3(4,3)-dipyrazolacyclononaphan-6-one]	5.1	22	8.7	80	94	100	69	45	67	86	22	36	1.2	100	25	94	83	33	100	90	Ambit profiling: CSNK10 (various enzymes [10]): 11; Ambit profiling: RET(V804M) (various enzymes [14]): 6; Ambit profiling: PAK4 (various enzymes [22]): 91; Ambit profiling: ACVR1B (various enzymes [23]): 57; Ambit profiling: PIK3CA(E545A) (various enzymes [24]): 82; Ambit profiling: MST2 (various enzymes [25]): 3.1; Ambit profiling: MRCKA (various enzymes [26]): 99; Ambit profiling: PCTK1 (various enzymes [27]): 66; Ambit profiling: PKN2 (various enzymes [28]): 100; Ambit profiling: DRAK1 (various enzymes [29]): 100; Ambit profiling: MAK (various enzymes [30]): 77; Ambit profiling: JAK3(JH1domain-catalytic) (various enzymes [31]): 0; Ambit profiling: TGFBR2 (various enzymes [32]): 20; Ambit profiling: NDR2 (various enzymes [33]): 78; Ambit profiling: TRKC (various enzymes [34]): 0; Ambit profiling: TYK2(JH1domain-catalytic) (various enzymes [35]): 19; Ambit profiling: TYK2(JH2domain-pseudokinase) (various enzymes [35]): 84; Ambit profiling: GRK7 (various enzymes [36]): 9.7; Ambit profiling: GRK1 (various enzymes [37]): 44; Ambit profiling: MEK6 (various enzymes [38]): 45
CC(C)N1Cc2nn(C)cc2-c2cnc3[nH]cc(c3c2)-c2cn(nc2C(F)(F)F)CCCC1=O [Compound 45, (Z)-5-isopropyl-31-methyl-13-(trifluoromethyl)-11H,21H,31H-5-aza-2(3,5)-pyrrolo[2,3-b]pyridina-1(4,1),3(4,3)-dipyrazolacyclononaphan-6-one]	6.8	42	18	76	100	100	30	32	36	100	43	7.4	0.9	100	38	100	100	100	100	89	Ambit profiling: CSNK1D (various enzymes [10]): 28; Ambit profiling: RET(V804M) (various enzymes [14]; compound 1 uM): 8.2; Ambit profiling: PAK4 (various enzymes [22]): 76; Ambit profiling: ACVR1B (various enzymes [23]): 89; Ambit profiling: PIK3CA(E545A) (various enzymes [24]; compound 1 uM): 56; Ambit profiling: MST2 (various enzymes [25]): 0; Ambit profiling: MRCKA (various enzymes [26]): 100; Ambit profiling: PCTK1 (various enzymes [27]): 20; Ambit profiling: PKN2 (various enzymes [28]): 100; Ambit profiling: DRAK1 (various enzymes [29]): 100; Ambit profiling: MAK (various enzymes [30]): 34; Ambit profiling: JAK3(JH1domain-catalytic) (various enzymes [31]): 0; Ambit profiling: TGFBR2 (various enzymes [32]): 91; Ambit profiling: NDR2 (various enzymes [33]): 92; Ambit profiling: TRKC (various enzymes [34]): 0.1; Ambit profiling: TYK2(JH1domain-catalytic) (various enzymes [35]): 19; Ambit profiling: TYK2(JH2domain-pseudokinase) (various enzymes [35]): 100; Ambit profiling: GRK7 (various enzymes [36]): 28; Ambit profiling: GRK1 (various enzymes [37]): 17; Ambit profiling: MEK6 (various enzymes [38]): 15

— patent publication US12157741B2, “Macrocyclic inhibitors of DYRK1A” (DANA-FARBER CANCER INSTITUTE, INC., priority 2018, dated 2024)
